Measured values published in article PMC10305287, “Design, Synthesis, and Evaluation of the COX-2 Inhibitory Activities of New 1,3-Dihydro-2H-indolin-2-one Derivatives” (Molecules, 2023).
“Also recorded” adds a separate entry of the source.

What was measured:
[1] = molecular target: T1, human recombinant COX-2 enzyme (Homo sapiens, UniProt P35354); assay: In vitro COX-2 inhibitory assay (Cyclooxygenase-2 Inhibitor Screening Kit); format: biochemical; details: for IC50: human recombinant COX-2, fluorescence kit, mean ± SD, n = 3; for COX-2 inhibitory activity (in words): human recombinant COX-2, screening kit
T1 construct: purchased Beyotime Company, Shanghai, China
T1 sequence (P35354 18-604): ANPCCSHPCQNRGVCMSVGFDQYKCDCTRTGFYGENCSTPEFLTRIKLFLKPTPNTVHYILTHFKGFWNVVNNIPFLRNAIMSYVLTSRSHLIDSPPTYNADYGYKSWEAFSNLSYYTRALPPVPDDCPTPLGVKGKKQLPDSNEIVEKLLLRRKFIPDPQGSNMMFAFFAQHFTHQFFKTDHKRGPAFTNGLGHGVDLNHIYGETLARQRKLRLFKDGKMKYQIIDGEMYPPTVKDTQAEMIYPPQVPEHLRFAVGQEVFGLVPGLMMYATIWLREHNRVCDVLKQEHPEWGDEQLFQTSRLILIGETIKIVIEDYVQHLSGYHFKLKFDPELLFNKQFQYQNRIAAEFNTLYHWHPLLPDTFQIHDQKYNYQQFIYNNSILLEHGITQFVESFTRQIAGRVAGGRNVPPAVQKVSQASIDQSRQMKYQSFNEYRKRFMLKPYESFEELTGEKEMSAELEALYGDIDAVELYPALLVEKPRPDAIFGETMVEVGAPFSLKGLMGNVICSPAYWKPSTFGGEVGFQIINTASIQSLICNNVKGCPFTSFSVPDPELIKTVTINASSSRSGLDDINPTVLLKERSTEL
Experimental: The reaction was started by the addition of COX-2 substrate and allowed to proceed for 5 min. The intensity of fluorescence at an emission wavelength of 590 nm upon 560 nm excitation was measured using a microplate reader (Thermo Varioskan LUX, Waltham, MA, USA). All tests were repeated three times independently.

[2] = system: NO production in LPS-stimulated RAW 264.7 cells; assay: Inhibition of NO production in LPS-stimulated RAW 264.7 cells; format: cell-based, murine; details: for Anti-inflammatory activity, NO production (in words): LPS-stimulated RAW 264.7 cells; for IC50: LPS-activated RAW 264.7 cells, mean ± SD, n = 3
Experimental: RAW 264.7 cells were cultured in DMEM medium supplemented with 10% fetal bovine serum and 1% penicillin/streptomycin at 37 °C and 5% CO2 in a saturated humidified incubator. Then cells were seeded in 24-well plates (4 × 10^5 cells/well) after 24 h of incubation and treated with different concentrations of compounds (80, 40, 20, and 5 μM) for 2 h. The cells were stimulated with LPS (5 μg/mL) for 24 h, the supernatant was transferred to a new 24-well microtiter plate, and the NO concentration in the cell supernatant was calculated using an NO detection kit (Beyotime Company, Shanghai, China).

RAW 264.7 cells = assay: Cytotoxicity assay (CCK-8) on RAW 264.7 cells; format: cell-based, mouse
Experimental: The RAW 264.7 murine macrophage cells were obtained from the Cell Bank of the Chinese Academy of Sciences (Shanghai, China). RAW 264.7 cells were cultured in DMEM (Dulbecco’s Modified Eagle Medium) medium supplemented with 10% fetal bovine serum and 1% penicillin/streptomycin at 37 °C and 5% CO2 in a saturated humidified incubator. The Cell Counting Kit-8 (CCK-8) method was used to evaluate the cytotoxicity of all the compounds on RAW 264.7 cells in vitro. […] After 24 h of cultivation, the cells were incubated with a CCK-8 solution (10 µL). After incubation at 37 °C and 5% CO2 for 2–4 h, the optical density (OD) was recorded at 450 nm by a microplate reader. The half-maximal inhibitory concentration (IC50) was calculated by SPSS 22.0 software. PDTC was used as a positive control.

COX-2 = details: read-out: IC50 (COX-2); cited from earlier work
[3] = CCK-8, concentration not stated

IC50 [1] [µM]	IC50 ([2]; Mus musculus, RAW264.7) [µM]	melting point [°C]	COX-2 inhibitory activity (in words) [1]	IC50 [2] [µM]	SMILES	Anti-inflammatory activity, NO production (in words) [2]	Cytotoxicity (in words) (RAW 264.7 cells; [3])	Cytotoxicity (in words) (RAW 264.7 cells; CCK-8, at 100 μM)	IC50 (COX-2) [µM]
19.9 ± 4.76	17.8 ± 1.86	131.2 to 132.1	–	–	CC(=O)N1C(=O)/C(=C\c2cccc(C(F)(F)F)c2)c2ccc(C(F)(F)F)cc21 [Compound 4a]	obvious anti-inflammatory activity	weak cytotoxicity	–	–
–	–	91.3 to 92.8	–	–	CC(=O)N1C(=O)/C(=C/c2cccc(C(F)(F)F)c2)c2ccc(C(F)(F)F)cc21 [Compound 4b]	–	–	–	–
–	–	191.1 to 191.5	–	–	Cc1ccc(S(=O)(=O)Nc2ccc3c(c2)C(=Cc2cccc(C(F)(F)F)c2)C(=O)N3)cc1 [Compound 9f]	–	–	–	–
2.42 ± 0.1	–	191.1 to 191.5	good inhibitory activity	–	O=C1Cc2cc(N=Cc3cc(C(F)(F)F)cc(C(F)(F)F)c3)ccc2N1 [Compound 9i, 5-((3,5-bis(trifluoromethyl)benzylidene)amino)indolin-2-one]	no anti-inflammatory activity	no cytotoxicity	almost no cytotoxicity	–
–	–	141.3 to 143.2	–	–	COc1cccc(C=C2C(=O)N(C(C)=O)c3cc(Cl)ccc32)c1 [Compound 4s]	–	–	almost no cytotoxicity	–
–	16.3 ± 0.35	121.5 to 123.3	–	–	CC(=O)N1C(=O)C(=Cc2cccc(C(F)(F)F)c2)c2ccccc21 [Compound 4j]	obvious anti-inflammatory activity	weak cytotoxicity	–	–
3.34 ± 0.05	13.5 ± 0.48	165.9 to 166.2	–	–	CC(=O)N1C(=O)C(=Cc2cccc(C(F)(F)F)c2)c2cc(N)ccc21 [Compound 4e]	obvious anti-inflammatory activity	weak cytotoxicity	almost no cytotoxicity; also recorded: no significant cytotoxicity	–
–	20.4 ± 1.61	142.9 to 144.1	–	–	CC(=O)N1C(=O)C(=Cc2ccc(C(F)(F)F)cc2)c2ccc(Cl)cc21 [Compound 4i]	obvious anti-inflammatory activity	weak cytotoxicity	–	–
–	–	–	–	13.7 ± 0.88	S=C(S)N1CCCC1 [PDTC, Ammonium pyrrolidinedithiocarbamate, reference compound]	–	–	–	–
> 20	–	131 to 133.6	–	–	CC(=O)N1C(=O)C(=Cc2ccccc2C(F)(F)F)c2ccc(Cl)cc21 [Compound 4k]	–	–	–	–
2.35 ± 0.04	–	166.3 to 166.8	good inhibitory activity	–	O=C1Cc2cc(/N=C/c3cccc(C(F)(F)F)c3)ccc2N1 [Compound 9h]	no anti-inflammatory activity	no cytotoxicity	almost no cytotoxicity	–
–	10 ± 0.27	226.5 to 226.9	–	–	O=C1Nc2ccc(NS(=O)(=O)c3ccc([N+](=O)[O-])cc3)cc2C1=Cc1cccc(C(F)(F)F)c1 [Compound 9d]	obvious anti-inflammatory activity	weak cytotoxicity	–	–
